Laboratory results reported in ChEMBL document CHEMBL1201862, “PubChem BioAssay data set” (2004).
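Growth conditions: 96-well plates. Treatment: test compound, 48 hours, 5 concentrations. Analysis: linear interpolation between bracketing concentrations; unreached endpoints set to highest concentration. GI50 = concentration required for 50% inhibition of growth.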 Activity calls are given as the source filed them. Rule as the data show it: active = GI50 up to about 1.1 µM and inactive = higher.

What was measured:
Assay in all cases: NCI-60 cell line screen, 48 h
[1] = tested on: SF-268
[2] = tested on: SK-MEL-28
[3] = tested on: UACC-257
[4] = tested on: MCF7
[5] = tested on: 786-0
[6] = tested on: MDA-MB-231
[7] = tested on: T47D
[8] = tested on: TK-10
[9] = tested on: NCI-H226
[10] = tested on: RXF 393
[11] = tested on: MOLT-4
[12] = tested on: Malme-3M
[13] = tested on: BT-549
[14] = tested on: SK-MEL-2
[15] = tested on: OVCAR-3
[16] = tested on: COLO 205
[17] = tested on: MDA-MB-435
[18] = tested on: HL-60
[19] = tested on: U-251
[20] = tested on: ACHN

| SMILES | GI50 [1] | GI50 [2] | GI50 [3] | GI50 [4] | GI50 [5] | GI50 [6] | GI50 [7] | GI50 [8] | GI50 [9] | GI50 [10] | GI50 [11] | GI50 [12] | GI50 [13] | GI50 [14] | GI50 [15] | GI50 [16] | GI50 [17] | GI50 [18] | GI50 [19] | GI50 [20] |
| --- | --- | --- | --- | --- | --- | --- | --- | --- | --- | --- | --- | --- | --- | --- | --- | --- | --- | --- | --- | --- |
| O=C1C=CC(=O)C(CNc2ccc(C(=O)OCc3ccccc3)cc2)=C1 | 6.4 µM (inactive) | 5.11 µM (inactive) | 11.5 µM (inactive) | 4.57 µM (inactive) | 3.33 µM (inactive) | 7.82 µM (inactive) | 1.77 µM (inactive) | 4.62 µM (inactive) | 12.3 µM (inactive) | 2.68 µM (inactive) | 2 µM (inactive) | 2.67 µM (inactive) | 2.56 µM (inactive) | 14.9 µM (inactive) | 2.4 µM (inactive) | 1.86 µM (inactive) | 5.06 µM (inactive) | 1.08 µM (active) | 6.24 µM (inactive) | 3.66 µM (inactive) |
| Nc1ccn(CC(O)c2cc3ccccc3[nH]2)c(=O)n1 (stereo not given) | > 100 µM (inactive) | > 100 µM (inactive) | > 100 µM (inactive) | > 100 µM (inactive) | > 100 µM (inactive) | > 100 µM (inactive) | > 100 µM (inactive) | > 100 µM (inactive) | > 100 µM (inactive) | > 100 µM (inactive) | > 100 µM (inactive) | > 100 µM (inactive) | > 100 µM (inactive) | > 100 µM (inactive) | > 100 µM (inactive) | > 100 µM (inactive) | > 100 µM (inactive) | > 100 µM (inactive) | > 100 µM (inactive) | > 100 µM (inactive) |
| CCC1=NC(N/N=C/c2ccccc2O)=N/C1=C\c1ccccc1O | 4.98 µM (inactive) | 23.7 µM (inactive) | 14.8 µM (inactive) | 5.52 µM (inactive) | 6.76 µM (inactive) | 36.3 µM (inactive) | 12.1 µM (inactive) | 11.2 µM (inactive) | 22.1 µM (inactive) | 18.3 µM (inactive) | 6.56 µM (inactive) | 12.4 µM (inactive) | 12.1 µM (inactive) | 12.6 µM (inactive) | 2.89 µM (inactive) | 13.3 µM (inactive) | 13.3 µM (inactive) | 4.53 µM (inactive) | 19.3 µM (inactive) | 4.11 µM (inactive) |
| CS[C@]12C(=O)C[C@@]3(C)[C@@H](CC[C@]3(O)C(=O)CO)[C@@H]1CCC1=CC(=O)CC[C@@]12C | > 100 µM (inactive) | > 100 µM (inactive) | > 100 µM (inactive) | > 100 µM (inactive) | > 100 µM (inactive) | > 100 µM (inactive) | > 100 µM (inactive) | > 100 µM (inactive) | > 100 µM (inactive) | > 100 µM (inactive) | 49.8 µM (inactive) | > 100 µM (inactive) | 68.2 µM (inactive) | > 100 µM (inactive) | > 100 µM (inactive) | > 100 µM (inactive) | 30.1 µM (inactive) | 35.3 µM (inactive) | > 100 µM (inactive) | > 100 µM (inactive) |
| O=C(O)c1cc2c(cc1CC(Cc1ccc3c(c1)CCCC3)C(=O)O)CCCC2 (stereo not given) | 39.4 µM (inactive) | > 100 µM (inactive) | 44.6 µM (inactive) | 38.2 µM (inactive) | > 100 µM (inactive) | > 100 µM (inactive) | 88.1 µM (inactive) | > 100 µM (inactive) | 54.3 µM (inactive) | 41.5 µM (inactive) | 59.8 µM (inactive) | > 100 µM (inactive) | 59.2 µM (inactive) | > 100 µM (inactive) | > 100 µM (inactive) | > 100 µM (inactive) | > 100 µM (inactive) | 99.8 µM (inactive) | > 100 µM (inactive) | 56.5 µM (inactive) |
| N=C1OC(c2c[nH]c3ccc(OCc4ccccc4)cc23)C(O)=C1O (stereo not given) | > 100 µM (inactive) | > 100 µM (inactive) | > 100 µM (inactive) | > 100 µM (inactive) | > 100 µM (inactive) | 74.5 µM (inactive) | > 100 µM (inactive) | > 100 µM (inactive) | > 100 µM (inactive) | > 100 µM (inactive) | > 100 µM (inactive) | > 100 µM (inactive) | > 100 µM (inactive) | > 100 µM (inactive) | > 100 µM (inactive) | > 100 µM (inactive) | > 100 µM (inactive) | 71.1 µM (inactive) | > 100 µM (inactive) | > 100 µM (inactive) |
| CN(NC(=O)c1cccs1)C1=NCCCCN1 | > 100 µM (inactive) | > 100 µM (inactive) | > 100 µM (inactive) | > 100 µM (inactive) | > 100 µM (inactive) | > 100 µM (inactive) | > 100 µM (inactive) | > 100 µM (inactive) | > 100 µM (inactive) | > 100 µM (inactive) | > 100 µM (inactive) | > 100 µM (inactive) | > 100 µM (inactive) | > 100 µM (inactive) | > 100 µM (inactive) | > 100 µM (inactive) | > 100 µM (inactive) | > 100 µM (inactive) | > 100 µM (inactive) | > 100 µM (inactive) |
| COc1cc(C(=O)Nc2c3ccccc3nc3ccccc23)cc(OC)c1OC | 28.9 µM (inactive) | > 100 µM (inactive) | > 100 µM (inactive) | > 100 µM (inactive) | > 100 µM (inactive) | > 91.8 µM (inactive) | > 100 µM (inactive) | > 100 µM (inactive) | > 100 µM (inactive) | 14.2 µM (inactive) | 23.2 µM (inactive) | > 78.3 µM (inactive) | > 100 µM (inactive) | > 100 µM (inactive) | 98.6 µM (inactive) | > 100 µM (inactive) | > 74.5 µM (inactive) | 3.64 µM (inactive) | > 100 µM (inactive) | > 50.1 µM (inactive) |
| NN | 561 µM (inactive) | 585 µM (inactive) | 851 µM (inactive) | 179 µM (inactive) | 204 µM (inactive) | 423 µM (inactive) | 618 µM (inactive) | 893 µM (inactive) | 481 µM (inactive) | 453 µM (inactive) | 193 µM (inactive) | 881 µM (inactive) | 1080 µM (inactive) | 607 µM (inactive) | 431 µM (inactive) | 328 µM (inactive) | 210 µM (inactive) | 205 µM (inactive) | 410 µM (inactive) | 593 µM (inactive) |
| COc1cc2c3cc1Oc1cc(ccc1O)C[C@@H]1c4c(cc(OC)c(O)c4Oc4ccc(cc4)C[C@@H]3N(C)CC2)CC[N+]1(C)C | 32.4 µM (inactive) | > 100 µM (inactive) | 56 µM (inactive) | 22.4 µM (inactive) | 55.3 µM (inactive) | 25.1 µM (inactive) | 23.8 µM (inactive) | > 100 µM (inactive) | > 100 µM (inactive) | 13.6 µM (inactive) | 61.8 µM (inactive) | 17.8 µM (inactive) | > 100 µM (inactive) | 90.2 µM (inactive) | 25.7 µM (inactive) | 77.1 µM (inactive) | 43.7 µM (inactive) | > 100 µM (inactive) | 28.9 µM (inactive) | > 100 µM (inactive) |
